{
  "source": "paper PMC5943319",
  "about": "“Cloning and characterization of a pyrethroid pesticide decomposing esterase gene, Est3385, from Rhodopseudomonas palustris PSB-S” (Scientific Reports, 2018)",
  "system": "Est3385",
  "assay": "GC quantification of residual substrate, Michaelis-Menten",
  "format": "biochemical, Rhodopseudomonas palustris",
  "details": "GST fusion; substrate 10-50 µg/ml (below the Km); pH and temperature of kinetics not stated",
  "data": [
    {"compound": "CC1(C)C(C(=O)OC(C#N)c2cccc(Oc3ccccc3)c2)C1(C)C", "note": "(stereo not shown) [fenpropathrin]", "values": [
      {"measurement": "Km", "value": "734 ± 13", "unit": "µM"}
    ]}
  ]
}
